Values quoted from earlier work, collected in US10226403B2, “Composition and method for using medicament for endodontic irrigation, stem cell preparation and tissue regeneration” (priority 2012, dated 2019).
Read-outs that look alike come from different tables or passages of the source.

**Q.** What does the source list for OCl [Sodium hypochlorite, sodium hypochlorite]?
**A.** effectiveness: highly effective; effectiveness (at 1.3-2.5%): ineffective
